US10723727B2, “Tubulysin analogs and methods for their preparation” (priority 2016, dated 2020)
Where two headings read alike, the source gives them in different places.

Key:
[1] = system: MDA-MB-361-DYT2 (breast cancer) cells; assay: In vitro cell assay (MTS cell viability), MDA-MB-361-DYT2; format: cell-based; settings: free compounds, 96 hours after treatment
Experimental: (§1) In Vitro Cell Assay Procedure
(§2) Target expressing (BT474 (breast cancer), N87 (gastric cancer), HCC1954 (breast cancer), MDA-MB-361-DYT2 (breast cancer)) or non-expressing (HT-29) cells were seeded in 96-well cell culture plates for 24 hours before treatment. Cells were treated with 3-fold serially diluted antibody-drug conjugates or free compounds (i. e. no antibody conjugated to the drug) in duplicate at 10 concentrations. Cell viability was determined by CellTiter 96® AQueous One Solution Cell Proliferation MTS Assay (Promega, Madison Wis.) 96 hours after treatment. Relative cell viability was determined as percentage of untreated control. IC50 values were calculated using a four parameter logistic model #203 with XLfit v4. 2 (IDBS, Guildford, Surry, UK).

[2] = system: N87 (gastric cancer) cells; assay: In vitro cell assay (MTS cell viability), N87; format: cell-based; settings: free compounds, 96 hours after treatment
Experimental: as §1, §2

HT-29 cells = assay: In vitro cell assay (MTS cell viability), HT-29 (target non-expressing); format: cell-based; settings: free compounds, 96 hours after treatment, read-out: HT29 IC50
Experimental: as §1, §2

[3] = molecular target: T1, tubulin/RB3-stathmin-like-domain (RB3-SLD-tdm) complex (Sus scrofa, UniProt P02550+P02554); assay: Tubulin Peptide-Binding Site Competition Assay (fluorescence polarization); set-up: species or system Porcine
T1 construct: purchased Cytoskeleton, Inc. T240; host or cells: RB3-SLD was made in house in E. coli
Experimental: Tubulin Peptide-Binding Site Competition Assay
Tubulin binding potency was measured for payloads or cysteine-capped linker-payloads using a fluorescence polarization (FP) competition assay. The binding of a BODIPY-labeled vinca peptide probe (# B31) to a tubulin/RB3-stathmin-like-domain (RB3-SLD-tdm) complex generates a high FP signal, which can be decreased when mixing with test compounds that compete with the FP probe. The order of addition for the reagents in the FP assay was designed to pre-mix the FP probe with various concentrations of the test compound before mixing them with the tubulin/RB3-SLD-dm complex. The final assay concentrations of the probe, tubulin and RB3-SLD-dm were 3, 6, and 100 nM, respectively. IC50 for each test compound is obtained by fitting the dose-dependent FP signal change using GraphPad Prism version 5 software (La Jolla, Calif.) while Ki is converted from the IC50 using the equations described previously (Nikolovska-Coleska et al., 2004). The FP signals were measured on an Infinite M1000 (Tecan, San Jose, Calif.) using ProxiPlate-384 F Plus, Black (Perkin-Elmer, Waltham, Mass., Cat #6008260) with 15 μL of solution per well. Sample dilution and mixing were done using a Beckman Biomek XF (Brea, Calif.). Porcine tubulin was purchased from Cytoskeleton, Inc. (Denver, Colo., Cat #T240) and RB3-SLD was expressed in E. coli. and purified on Q and then Superdex75 columns. The FP assay test for each compound was run in duplicates by mixing 6 μL of solution 1 containing 2.5× test compound (2.5× serial dilution from 7.8 μM maximum concentration, 11 total concentrations) and 7.5 nM of the FP probe in 80 mM PIPES, pH 7.0, 0.02% Tween 20, 2 mM MgCl2, 1 mM EGTA and 3% DMSO with 9 μL of solution 2 containing […] porcine tubulin and 167 nM of RB3-SLD-dm peptide ([…]-[…]) on ProxiPlate-384 micro-plates.

[4] = FP competition with BODIPY-labeled vinca peptide probe, read after five hours at 22° C., read-out: Tubulin Peptide-Binding Site Competition Assay IC50

Q: What does the source list for `CC[C@H](C)[C@H](NC(=O)[C@]1(C)CCCCN1C)C(=O)N(C)[C@H](C[C@@H](OC(C)=O)c1nc(C(=O)N[C@@H](Cc2ccc(N)cc2)C[C@H](C)C(=O)O)cs1)C(C)C` [#B23, (2S,4R)-4-{[(2-{(1R,3R)-1-(acetyloxy)-3-[(N-{[(2S)-1,2-dimethylpiperidin-2-yl]carbonyl}-L-isoleucyl)(methyl)amino]-4-methylpentyl}-1,3-thiazol-4-yl)carbonyl]amino}-5-(4-aminophenyl)-2-methylpentanoic acid]?
A: IC50 ([1]; 96 h): 2.02 nM; IC50 ([2]; 96 h): 2.71 nM; IC50 (HT-29 cells; Homo sapiens, HT-29, 96 h): 2.33 nM

Q: How did the IC50 ([1]; 96 h) turn out when `CC[C@H](C)[C@H](NC(=O)[C@@]1(C)CCCN1C)C(=O)N(C)[C@H](C[C@@H](NC(C)=O)c1nc(C(=O)N[C@@H](Cc2ccccc2)C[C@H](C)C(=O)O)cs1)C(C)C` [#B19, 1,2-dimethyl-D-prolyl-N-[(1R,3R)-1-(acetylamino)-1-(4-{[(2R,4S)-4-carboxy-1-phenylpentan-2-yl]carbamoyl}-1,3-thiazol-2-yl)-4-methylpentan-3-yl]-N-methyl-L-isoleucinamide] was run?
A: 17.4 nM

Q: What about the IC50 ([2]; 96 h) of the same compound?
A: 37.7 nM

Q: And the IC50 (HT-29 cells; Homo sapiens, HT-29, 96 h)?
A: 14.6 nM

Q: `CCNC(=O)O[C@H](C[C@H](C(C)C)N(C)C(=O)[C@@H](NC(=O)C1(C)CCCCN1C)[C@@H](C)CC)c1nc(C(=O)N[C@@H](Cc2ccc(N)cc2)C[C@H](C)C(=O)O)cs1` (stereo in doubt) [#B24, (2S,4R)-5-(4-aminophenyl)-4-{[(2-{(1R,3R)-3-[(N-{[(2R)-1,2-dimethylpiperidin-2-yl]carbonyl}-L-isoleucyl)(methyl)amino]-1-[(ethylcarbamoyl)oxy]-4-methylpentyl}-1,3-thiazol-4-yl)carbonyl]amino}-2-methylpentanoic acid] was tested. Which IC50 [1] did it give?
A: 1.24 nM

Q: And the IC50 [2]?
A: 1.22 nM

Q: What about the IC50 (HT-29 cells) of the same compound?
A: 1.14 nM

Q: `CC[C@H](C)[C@H](NC(=O)[C@@]1(C)CCCN1C)C(=O)N(C)[C@H](C[C@@H](NC(C)=O)c1nc(C(=O)N[C@@H](Cc2ccccc2)C[C@H](C)C(=O)OC)cs1)C(C)C` [#B20, 1,2-dimethyl-D-prolyl-N-[(1R,3R)-1-(acetylamino)-1-(4-{[(2R,4S)-5-methoxy-4-methyl-5-oxo-1-phenylpentan-2-yl]carbamoyl}-1,3-thiazol-2-yl)-4-methylpentan-3-yl]-N-methyl-L-isoleucinamide] was tested. Which IC50 ([1]; 96 h) did it give?
A: 2.58 nM

Q: And the IC50 ([2]; 96 h)?
A: 6.11 nM

Q: What about the IC50 (HT-29 cells; Homo sapiens, HT-29, 96 h) of the same compound?
A: 3.37 nM

Q: Which IC50 ([1]; 96 h) does the source give for `CCNC(=O)N[C@H](C[C@H](C(C)C)N(C)C(=O)[C@@H](NC(=O)[C@@]1(C)CCCN1C)[C@@H](C)CC)c1nc(C(=O)N[C@@H](Cc2ccc(N)cc2)C[C@H](C)C(=O)O)cs1` [#B29, 1,2-dimethyl-D-prolyl-N-{(1R,3R)-1-(4-{[(2R,4S)-1-(4-aminophenyl)-4-carboxypentan-2-yl]carbamoyl}-1,3-thiazol-2-yl)-1-[(ethylcarbamoyl)amino]-4-methylpentan-3-yl}-N-methyl-L-isoleucinamide] here?
A: 24.9 nM

Q: And the IC50 ([2]; 96 h)?
A: 28.6 nM

Q: What about the IC50 (HT-29 cells; Homo sapiens, HT-29, 96 h) of the same compound?
A: 24.5 nM

Q: How did the IC50 ([1]; 96 h) turn out when `CCOC(=O)[C@@H](C)C[C@H](Cc1ccccc1)NC(=O)c1csc([C@@H](C[C@H](C(C)C)N(C)C(=O)[C@@H](NC(=O)[C@@]2(C)CCCN2C)[C@@H](C)CC)OC(C)=O)n1` [#B7, 1,2-dimethyl-D-prolyl-N-[(1R,3R)-1-(acetyloxy)-1-(4-{[(2R,4S)-5-ethoxy-4-methyl-5-oxo-1-phenylpentan-2-yl]carbamoyl}-1,3-thiazol-2-yl)-4-methylpentan-3-yl]-N-methyl-L-isoleucinamide] was run?
A: 5.15 nM

Q: What about the IC50 [3, 4] of the same compound?
A: 11.9 nM

Q: What about the IC50 ([2]; 96 h) of the same compound?
A: 9.53 nM

Q: With `CCOC(=O)c1ncoc1[C@H](Cc1ccccc1)NC(=O)c1csc([C@@H](C[C@H](C(C)C)N(C)C(=O)[C@@H](NC(=O)[C@H]2CCCCN2C)[C@@H](C)CC)OC(C)=O)n1` [#B39, ethyl 5-[(1S)-1-{[(2-{(1R,3R)-1-(acetyloxy)-4-methyl-3-[methyl(N-{[(2R)-1-methylpiperidin-2-yl]carbonyl}-L-isoleucyl)amino]pentyl}-1,3-thiazol-4-yl)carbonyl]amino}-2-phenylethyl]-1,3-oxazole-4-carboxylate] as the compound, how does the IC50 ([1]; 96 h) read?
A: 0.602 nM

Q: What about the IC50 [3, 4] of the same compound?
A: 4.7 nM

Q: What about the IC50 ([2]; 96 h) of the same compound?
A: 1.39 nM

Q: What does the source list for `CC[C@H](C)[C@H](NC(=O)[C@H]1CCCCN1C)C(=O)N(C)[C@H](C[C@@H](OC(C)=O)c1nc(C(=O)N[C@@H](Cc2ccccc2)CC(C)P(=O)(O)O)cs1)C(C)C` (stereo partly drawn) [#B3, N-[(1R,3R)-1-(acetyloxy)-4-methyl-1-(4-{[(2S)-1-phenyl-4-phosphonopentan-2-yl]carbamoyl}-1,3-thiazol-2-yl)pentan-3-yl]-N-methyl-N˜2˜-{[(2R)-1-methylpiperidin-2-yl]carbonyl}-L-isoleucinamide]?
A: IC50 ([1]; 96 h): 9.4 nM; IC50 [3]: 4.4 nM; IC50 ([2]; 96 h): 14.8 nM

Q: Which IC50 [1] does the source give for `CCNC(=O)O[C@H](C[C@H](C(C)C)N(C)C(=O)[C@@H](NC(=O)[C@]1(C)CCCCN1C)[C@@H](C)CC)c1nc(C(=O)N[C@@H](Cc2ccc(N)cc2)C[C@H](C)C(=O)O)cs1` [#B25, (2S,4R)-5-(4-aminophenyl)-4-{[(2-{(1R,3R)-3-[(N-{[(2S)-1,2-dimethylpiperidin-2-yl]carbonyl}-L-isoleucyl)(methyl)amino]-1-[(ethylcarbamoyl)oxy]-4-methylpentyl}-1,3-thiazol-4-yl)carbonyl]amino}-2-methylpentanoic acid] here?
A: 4.62 nM

Q: What about the IC50 [2] of the same compound?
A: 6.3 nM

Q: And the IC50 (HT-29 cells)?
A: 5.9 nM

Q: Which IC50 ([1]; 96 h) does the source give for `CC[C@H](C)[C@H](NC(=O)[C@H]1CCCCN1C)C(=O)N(C)[C@H](C[C@@H](OC(C)=O)c1nc(C(=O)N[C@@H](Cc2ccccc2)CN2CCOCC2)cs1)C(C)C` [#B40, (1R,3R)-4-methyl-3-[methyl(N-{[(2R)-1-methylpiperidin-2-yl]carbonyl}-L-isoleucyl)amino]-1-[4-({(2S)-1-(morpholin-4-yl)-3-phenylpropan-2-yl]carbamoyl}-1,3-thiazol-2-yl)pentyl acetate] here?
A: 0.308 nM

Q: What about the IC50 [3, 4] of the same compound?
A: 2.4 nM

Q: What about the IC50 ([2]; 96 h) of the same compound?
A: 0.485 nM

Q: How did the IC50 ([1]; 96 h) turn out when `CC[C@H](C)[C@H](NC(=O)[C@H]1CCCCN1C)C(=O)N(C)[C@H](C[C@@H](OC(C)=O)c1nc(C(=O)NN(Cc2ccccc2)CC(C)C(=O)O)cs1)C(C)C` (stereo partly drawn) [#B4, 3-{2-[(2-{(1R,3R)-1-(acetyloxy)-4-methyl-3-[methyl(N-{[(2R)-1-methylpiperidin-2-yl]carbonyl}-L-isoleucyl)amino]pentyl}-1,3-thiazol-4-yl)carbonyl]-1-benzylhydrazinyl}-2-methylpropanoic Acid] was run?
A: 2.39 nM

Q: And the IC50 [3, 4]?
A: 4.6 nM

Q: What about the IC50 ([2]; 96 h) of the same compound?
A: 3.38 nM

Q: For `CC[C@H](C)[C@H](NC(=O)[C@]1(C)CCCN1C)C(=O)N(C)[C@H](C[C@@H](OC(C)=O)c1nc(C(=O)N[C@@H](Cc2ccccc2)C[C@H](C)C(=O)OC)cs1)C(C)C` [#B2, 1,2-dimethyl-L-prolyl-N-[(1R,3R)-1-(acetyloxy)-1-(4-{[(2R,4S)-5-methoxy-4-methyl-5-oxo-1-phenylpentan-2-yl]carbamoyl}-1,3-thiazol-2-yl)-4-methylpentan-3-yl]-N-methyl-L-isoleucinamide], which IC50 ([1]; 96 h) is on record?
A: 5.54 nM

Q: What about the IC50 [3, 4] of the same compound?
A: 92.2 nM

Q: And the IC50 ([2]; 96 h)?
A: 11.8 nM

Q: With `CC[C@H](C)[C@H](NC(=O)[C@@]1(C)CCCN1)C(=O)N(C)[C@H](C[C@@H](OC(C)=O)c1nc(C(=O)N[C@@H](Cc2ccccc2)C[C@H](C)C(=O)OC)cs1)C(C)C` [#B6, 2-methyl-D-prolyl-N-[(1R,3R)-1-(acetyloxy)-1-(4-{[(2R,4S)-5-methoxy-4-methyl-5-oxo-1-phenylpentan-2-yl]carbamoyl}-1,3-thiazol-2-yl)-4-methylpentan-3-yl]-N-methyl-L-isoleucinamide] as the compound, how does the IC50 ([1]; 96 h) read?
A: 18.6 nM

Q: What about the IC50 [3, 4] of the same compound?
A: 119 nM

Q: What about the IC50 ([2]; 96 h) of the same compound?
A: 29.3 nM

Q: With `CC[C@H](C)[C@H](NC(=O)[C@H]1CCCCN1C)C(=O)N(C)[C@H](C[C@@H](OC(C)=O)c1nc(C(=O)N[C@H](CNS(C)(=O)=O)Cc2ccccc2)cs1)C(C)C` [#B36, (1R,3R)-4-methyl-3-[methyl(N-{[(2R)-1-methylpiperidin-2-yl]carbonyl}-L-isoleucyl)amino]-1-[4-({(2S)-1-[(methylsulfonyl)amino]-3-phenylpropan-2-yl}carbamoyl)-1,3-thiazol-2-yl]pentyl acetate] as the compound, how does the IC50 ([1]; 96 h) read?
A: 0.255 nM

Q: What about the IC50 [3, 4] of the same compound?
A: 1.7 nM

Q: What about the IC50 ([2]; 96 h) of the same compound?
A: 0.459 nM
